What was measured:
[1] = biological target: T1, Serine/threonine-protein kinase PLK1 (Homo sapiens, UniProt P53350); test: Binding affinity to recombinant human N-terminal GST-tagged PLK1-PBD (367 to 603 end residue) expressed in Escherichia coli using MAGPMQS[pT]PLNGAKK as substrate incubated for 45 mins by fluorescence polarization assay
PC-3 [2] = test: Antiproliferative activity against human PC-3 cells assessed as cell viability measured after 72 hrs by MTT assay; format: functional, cell-based; conditions: PC-3, 72 h
HeLa = test: Antiproliferative activity against human HeLa cells assessed as cell viability measured after 72 hrs by MTT assay; format: functional, cell-based
A549 = test: Antiproliferative activity against human A549 cells assessed as cell viability measured after 72 hrs by MTT assay; format: functional, cell-based; conditions: A549, 72 h
[3] = Antiproliferative activity against human RPE cells expressing wild-type PLK1 assessed as reduction in cell viability measured after 72 hrs by MTT assay; format: functional, cell-based
[4] = Antiproliferative activity against human RPE cells expressing PLK1 C67V mutant assessed as reduction in cell viability measured after 72 hrs by MTT assay; format: functional, cell-based
[5] = Antiproliferative activity against human HCT116-p53-null cells assessed as cell viability measured after 72 hrs by MTT assay; format: functional, cell-based
PC-3 [6] = test: Induction of mitotic arrest in human PC-3 cells assessed as accumulation of cells at G2/M phase; format: functional
[7] = biological target: T1, Serine/threonine-protein kinase PLK1; test: Binding affinity to full length PLK1 in human PC-3 cells assessed as stabilized protein incubated for 2 hrs followed by aggregation temperature at 56.2 degC by […] analysis; format: cell-based
[8] = Antiproliferative activity against human p53HCT116 cells assessed as cell viability measured after 72 hrs by MTT assay; format: functional, cell-based; conditions: p53HCT116, 72 h

T1 sequence (P53350 whole entry): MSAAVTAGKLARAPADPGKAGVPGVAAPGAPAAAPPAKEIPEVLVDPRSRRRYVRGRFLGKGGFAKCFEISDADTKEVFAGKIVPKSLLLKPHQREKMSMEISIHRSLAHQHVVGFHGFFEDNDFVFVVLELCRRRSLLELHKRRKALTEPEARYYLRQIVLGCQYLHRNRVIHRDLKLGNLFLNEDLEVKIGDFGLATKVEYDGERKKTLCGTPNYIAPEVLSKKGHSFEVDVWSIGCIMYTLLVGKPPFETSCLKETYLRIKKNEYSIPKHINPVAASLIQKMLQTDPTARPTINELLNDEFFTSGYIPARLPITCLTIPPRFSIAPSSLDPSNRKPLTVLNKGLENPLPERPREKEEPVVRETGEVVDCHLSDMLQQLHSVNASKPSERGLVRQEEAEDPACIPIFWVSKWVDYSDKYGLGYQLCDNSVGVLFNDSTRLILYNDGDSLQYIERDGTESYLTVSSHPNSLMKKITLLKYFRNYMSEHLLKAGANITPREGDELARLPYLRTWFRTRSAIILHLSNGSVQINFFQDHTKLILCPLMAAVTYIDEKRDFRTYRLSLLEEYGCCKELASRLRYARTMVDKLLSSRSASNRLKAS

Structure (SMILES) | IC50 [1] [µM] | also measured
CCCCCCCCc1ccc(C(=O)Nc2cccc(Cl)c2C(=O)O)cc1 | 25.3 | 
CCCCCCCCc1ccc(CNc2ccccc2C(=O)O)cc1 | 9.8 | 
CCCCCCCCc1ccc(C(=O)Nc2cccc(O)c2C(=O)O)cc1 | 7.9 | 
CCCCCCCCc1ccc(CNc2cc(C)ccc2C(=O)O)cc1 | 21.7 | 
CCCCc1ccc(C(=O)Nc2ccccc2C(=O)O)cc1 | > 600 | 
CCCCCCCCc1ccc(C(=O)Nc2ccccc2C(=O)OCC)cc1 | > 600 | IC50 (PC-3 [2]): > 100 µM; IC50 (HeLa): > 100 µM
CCCCCCCCc1ccc(C(=O)Nc2ccccc2S(N)(=O)=O)cc1 | 259 | 
CCCCCCCCc1ccc(C(=O)Nc2cccc([N+](=O)[O-])c2C(=O)O)cc1 | 6.1 | 
CCCCCCCCc1ccc(C(=O)Nc2cccc(F)c2C(=O)O)cc1 | 11.1 | IC50 (A549): 2.9 µM; IC50 [3]: 8.79 µM; IC50 (PC-3 [2]): 11.6 µM; IC50 [4]: 9.1 µM; IC50 [5]: 10 µM
CCCCCCCCc1ccc(C(=O)Nc2cccc(OC)c2C(=O)O)cc1 | 29.6 | 
CCCCCCCCc1ccc(CCNc2ccccc2C(=O)O)cc1 | 118 | 
CCCCCCCCc1ccc(CNc2ccc(C)cc2C(=O)O)cc1 | > 600 | 
CC[C@@H]1C(=O)N(C)c2cnc(Nc3ccc(C(=O)NC4CCN(C)CC4)cc3OC)nc2N1C1CCCC1 [BI-2536] |  | Activity (PC-3 [6]): >75%
CCCCCCCCc1ccc(C(=O)Nc2ccc(C)cc2C(=O)O)cc1 | 2.2 | IC50 (A549): 5.1 µM; EC50 [7]: 0.82 µM; IC50 [8]: 17.4 µM; IC50 [3]: 13.4 µM; IC50 (PC-3 [2]): 16.3 µM; IC50 [4]: 12.6 µM; IC50 [5]: 10 µM
CCCCCCCCc1ccc(CNc2cccc(F)c2C(=O)O)cc1 | 18.8 | 
CCCCCCCCc1ccc(C(=O)Nc2ccccc2C(=O)O)cc1 |  | IC50 (A549): 2.8 µM; IC50 [3]: 33 µM; IC50 [4]: 25.9 µM; IC50 [5]: 8 µM
CCCCCCCCc1ccc(C(=O)Nc2ccccc2B(O)O)cc1 | > 600 | 
CCCCCCCCc1ccc(CNc2cccc(OP(=O)(O)O)c2)cc1 | > 600 | 
CCCCCCCCc1ccc(C(=O)Nc2cc(F)cc(F)c2C(=O)O)cc1 | 30.6 | 
CCCCCCCCc1ccc(C(=O)Nc2ccccc2[N+](=O)[O-])cc1 | > 600 | 
CCCCCc1ccc(C(=O)Nc2ccccc2C(=O)O)cc1 | 224 | 
CCCCCCCCc1ccc(C(=O)Nc2cc(C)ccc2C(=O)O)cc1 | 4 | IC50 (A549): 3.5 µM; IC50 [8]: 24.2 µM; IC50 (PC-3 [2]): 18.8 µM; IC50 [5]: 11.4 µM
CCCCCCCCCCCCc1ccc(C(=O)Nc2ccccc2C(=O)O)cc1 |  | IC50 (PC-3 [2]): 14 µM
CCCCCCCCc1ccc(C(=O)Nc2cccc(OP(=O)(O)O)c2)cc1 | 98.3 | 
CCCCCCCCc1ccc(C(=O)Nc2cccc(C(F)(F)F)c2C(=O)O)cc1 | 29.4 | 
CCCCCCCCc1ccc(CNc2cccc(CC)c2)cc1 | > 600 | 
CCCCCCCCc1ccc(C(=O)Nc2ccc(OC)cc2C(=O)O)cc1 | 5.9 | IC50 (HeLa): 8 µM
CCCCCCCCc1ccc(C(=O)Nc2c(O)cccc2C(=O)O)cc1 | 12 | 

Reference: ChEMBL document CHEMBL5131394, “Structure-activity and mechanistic studies of non-peptidic inhibitors of the PLK1 polo box domain identified through REPLACE” (Eur J Med Chem, 2022)
